{"source": "patent US20080176893A1", "about": "“Formulation of a Thienopyridine Platelet Aggregation Inhibitor” (ELI LILLY AND COMPANY, priority 2005, published 2008)", "origin": "cited, not measured here"}
{"smiles": "CC(=O)Oc1cc2c(s1)CCN(C(C(=O)C1CC1)c1ccccc1F)C2.Cl", "note": "(stereo not drawn) [Prasugrel, 2-Acetoxy-5-(α-cycloprpylcarbonyl-2-fluorobenzyl)-4,5,6,7-tetrahydrothieno[3,2-c]pyridine]", "values": [{"measurement": "degradation on prolonged exposure to air and moisture", "result": "some degradation"}]}
